Data taken from patent US5668134A, “Method for preventing or reducing photosensitivity and/or phototoxicity reactions to medications” (priority 1994, dated 1997).
Values joined by “and” are separate entries in the source; they are usually repeats but may differ in a detail not shown here. Equal values may be shown once. Where a name gives a salt, the structure may show the parent alone.

What was measured:
[1] = tested on: Staphylococcus saprophyticus; assay: Activity in vitro and in clinical infections; format: cell-based
[2] = Pharmacokinetics in renally impaired patients; format: in vivo, human; conditions: single doses
[3] = tested on: skin of healthy volunteers; assay: Example 5: Minimum Erythema Dose with UVA radiation, morning vs evening dosing; format: in vivo, human; conditions: for phototoxicity of evening versus morning dosing: UVA exposure 16 hours vs 2 hours after dosing; for DELAYED MED / IMMEDIATE MED / MED, 0 H / MED, 3 H / MED, 6 H / MED, 24 H / MED, 48 H / MED, 72 H / CHANGE BASELINE, delayed MED / CHANGE BASELINE, immediate MED: individual subjects; for MED, 0 H: 0 H post-radiation; for MED, 3 H: 3 H post-radiation; for MED, 6 H: 6 H post-radiation; for MED, 24 H: 24 H post-radiation; for MED, 48 H: 48 H post-radiation; for MED, 72 H: 72 H post-radiation; for CHANGE BASELINE, delayed MED / CHANGE BASELINE, immediate MED: baseline minus posttreatment
Experimental: This study describes a randomized, single site, double-blind, two treatment, two period, two sequence, cross-over clinical pharmacology study which was performed according to FDA regulations in 27 healthy normal volunteers with fair skin that could easily burn when exposed to sunlight, to assess the photosensitivity and/or phototoxicity potential of oral 400 mg lomefloxacin hydrochloride (MAXAQUIN®) administered once daily for 4 consecutive days either in the morning (morning dose group), as described hereinbelow, or in the early evening (evening dose group), as described hereinbelow. Irradiation and evaluation of irradiated sites began at 2 hours after the final morning dose of lomefloxacin HCl for the morning dosing group, and began 16 hours after the final evening dose of lomefloxacin HCl for the evening dosing group.
"Baseline MED" was defined as the lowest dose of UVA radiation alone, or UVA and UVB radiation, that produced a minimal perceptible erythema filling a 1 cm^2 patch of skin 24 hours post radiation.
"Delayed MED" was defined as the lowest dose of UVA radiation alone, or UVA and UVB radiation, that produced a minimal perceptible erythema filling a 1 cm^2 patch of skin, when testing the area 24, 48 and 72 hours post radiation.
"Immediate MED" was defined as the lowest dose producing minimal perceptible erythema filling a 1 cm^2 patch of skin when testing the area 0, 3, and 6 hours post radiation.
After all baseline procedures, including determination of baseline MEDUVA and MEDUVA+UVB values 24 hours post-radiation, were completed, all subjects started Study Day 1 of Treatment Period 1 with an evening dose of study medication, and completed this phase of the treatment regime with a morning dose of study medication on Study Day 5. Two hours after the final morning dose, and 16 hours after the last evening dose, a randomly selected site composed of six patches of skin, each with an area of one square centimeter, on the back or buttock of the subject was irradiated with incremental amounts of energy. Immediately following irradiation (0 hour), and at 3, 6, 24, 48 and 72 hours following irradiation, each skin patch area was evaluated to determine the MEDs, and assess the severity of skin reaction using a five-grade system, as described hereinbelow. The lowest of the MEDs determined at 0, 3 and 6 hours post-radiation were referred to as immediate MEDs, and the lowest of the MEDs determined at 24, 48 and 72 hours post-radiation were referred to as delayed MEDs.
The source of radiation employed was an Oriel (Santa Monica, Calif.) Xenon Arc 1000 watt solar simulator, with the following filters: WG320 filter (1 mm thick, emitting full spectrum UVA and UVB radiation), WG335 filter (3 mm thick, emitting almost exclusively UVA radiation) or UG11 filter (to filter infrared radiation).
For predrug exposure MED determination, 2 sets each with six 1 cm^2 patches on the back or buttocks were irradiated with increasing doses of UVA and UVB radiation, and UVA radiation alone, up to 7 days prior to beginning of drug treatment. With respect to UVA light source, irradiation began at 5 J/cm^2, and was increased by increments of 5 J/cm^2 using a different skin patch for each exposure. The maximum radiation dose was 30 J/cm^2. Subjects with MED greater than 30 J/cm^2 were excluded from the study. […] A different skin patch was used for each exposure.
Two hours after the administration of the last dose of Treatment Period 1 (a.m. dose), the two randomly selected sites on each subject's back or buttocks were exposed one to UVA and UVB radiation, and one to UVA radiation alone. In order to protect the subjects from excessive radiation, as well as assess the true Minimum Erythema Dose (MED), the posttreatment irradiation doses for each subject was adjusted in accordance with their pretreatment MEDs. The following table was used to determine each subject's minimum and maximum posttreatment radiation dose: […]

[4] = mean, UVA, a.m. dosing, p=0.002

CCn1cc(C(=O)O)c(=O)c2cc(F)c(N3CCNC(C)C3)c(F)c21 (racemic) [lomefloxacin HCl, monohydrochloride salt of (±)-1-ethyl-6,8-difluoro-1,4-dihydro-7-(3-methyl-1-piperazinyl)-4-oxo-3-quinolinecarboxylic acid]
activity against most strains [1]: active against most strains | peak concentrations versus renal function [2]: not affected by the degree of renal function | phototoxicity of evening versus morning dosing [3]: less sensitive to light | phototoxicity of evening versus morning dosing ([3]; listed as MAXAQUIN®): significantly less phototoxic | mean change of delayed MEDUVA, a.m. versus p.m. ([3]; in vivo): statistically significant difference | treatment effect on delayed MEDUVA, conservative analysis ([3]; in vivo): statistically significant treatment effect | DELAYED MED ([3]; UVA, a.m. dosing): 10.000 J/cm^2 and 20.000 J/cm^2 and 15.000 J/cm^2 and 30.000 J/cm^2 and 25.000 J/cm^2 | IMMEDIATE MED ([3]; UVA, a.m. dosing): 15.000 J/cm^2 and 20.000 J/cm^2 and 30.000 J/cm^2 and 25.000 J/cm^2 | MED, 0 H ([3]; UVA, a.m. dosing): 25.000 J/cm^2 and 30.000 J/cm^2 and 15.000 J/cm^2 | MED, 3 H ([3]; UVA, a.m. dosing): 15.000 J/cm^2 and 20.000 J/cm^2 and 25.000 J/cm^2 | MED, 6 H ([3]; UVA, a.m. dosing): 15.000 J/cm^2 and 20.000 J/cm^2 and 30.000 J/cm^2 and 25.000 J/cm^2 | MED, 24 H ([3]; UVA, a.m. dosing): 10.000 J/cm^2 and 20.000 J/cm^2 and 15.000 J/cm^2 and 30.000 J/cm^2 and 25.000 J/cm^2 | MED, 48 H ([3]; UVA, a.m. dosing): 15.000 J/cm^2 and 25.000 J/cm^2 and 30.000 J/cm^2 and 20.000 J/cm^2 | MED, 72 H ([3]; UVA, a.m. dosing): 15.000 J/cm^2 and 25.000 J/cm^2 and 20.000 J/cm^2 and 30.000 J/cm^2 | CHANGE BASELINE, delayed MED ([3]; UVA, a.m. dosing): 20.000 J/cm^2 and 5.000 J/cm^2 and 10.000 J/cm^2 and -5.000 J/cm^2 | CHANGE BASELINE, immediate MED ([3]; UVA, a.m. dosing): 15.000 J/cm^2 and 5.000 J/cm^2 and 10.000 J/cm^2 and -5.000 J/cm^2 | DELAYED MED ([3]; UVA, p.m. dosing): 30.000 J/cm^2 and 25.000 J/cm^2 and 20.000 J/cm^2 | IMMEDIATE MED ([3]; UVA, p.m. dosing): 30.000 J/cm^2 and 25.000 J/cm^2 | MED, 0 H ([3]; UVA, p.m. dosing): 30.000 J/cm^2 and 25.000 J/cm^2 | MED, 3 H ([3]; UVA, p.m. dosing): 30.000 J/cm^2 | MED, 6 H ([3]; UVA, p.m. dosing): 30.000 J/cm^2 and 25.000 J/cm^2 | MED, 24 H ([3]; UVA, p.m. dosing): 30.000 J/cm^2 and 25.000 J/cm^2 | MED, 48 H ([3]; UVA, p.m. dosing): 30.000 J/cm^2 and 20.000 J/cm^2 and 25.000 J/cm^2 | MED, 72 H ([3]; UVA, p.m. dosing): 30.000 J/cm^2 and 25.000 J/cm^2 | CHANGE BASELINE, delayed MED ([3]; UVA, p.m. dosing): -5.000 J/cm^2 and 0.000 J/cm^2 and 5.000 J/cm^2 | CHANGE BASELINE, immediate MED ([3]; UVA, p.m. dosing): -5.000 J/cm^2 and 5.000 J/cm^2 and 0.000 J/cm^2 | DELAYED MED, mean ([3]; mean, UVA, a.m. dosing): 20.000 J/cm^2 | IMMEDIATE MED, mean ([3]; mean, UVA, a.m. dosing): 19.615 J/cm^2 | MED, 0 H, mean ([3]; mean, UVA, a.m. dosing): 25.500 J/cm^2 | MED, 3 H, mean ([3]; mean, UVA, a.m. dosing): 20.833 J/cm^2 | MED, 6 H, mean ([3]; mean, UVA, a.m. dosing): 19.615 J/cm^2 | MED, 24 H, mean ([3]; mean, UVA, a.m. dosing, 24 H): 20.385 J/cm^2 | MED, 48 H, mean ([3]; mean, UVA, a.m. dosing, 48 H): 22.692 J/cm^2 | MED, 72 H, mean ([3]; mean, UVA, a.m. dosing, 72 H): 23.077 J/cm^2 | CHANGE BASELINE, delayed MED, mean [3, 4]: 6.5 J/cm^2 and 6.538 J/cm^2 | CHANGE BASELINE, immediate MED, mean [3, 4]: 6.923 J/cm^2 and 6.9 J/cm^2 | DELAYED MED, mean ([3]; mean, UVA, p.m. dosing): 27.917 J/cm^2 | IMMEDIATE MED, mean ([3]; mean, UVA, p.m. dosing): 28.750 J/cm^2 | MED, 0 H, mean ([3]; mean, UVA, p.m. dosing): 28.333 J/cm^2 | MED, 3 H, mean ([3]; mean, UVA, p.m. dosing): 30.000 J/cm^2 | MED, 6 H, mean ([3]; mean, UVA, p.m. dosing): 28.750 J/cm^2
